Laboratory results from patent US6552080B1, “Fungicidal compounds having a fluorovinyl-or fluoropropenyl-oxyphenyloxime moiety and process for the preparation thereof” (Korea Research Institute of Chemical Technology, priority 1999, dated 2003).
Where two headings read alike, the source gives them in different places.

What was measured:
Puccinia recondita = experiment: Fungicidal activity against Wheat Leaf Rust (WLR) disease; format: in vivo; conditions: Wheat Leaf Rust
Phytophthora infestans = format: in vivo; conditions: Tomato Late Blight
Erysiphae graminis = experiment: Fungicidal activity against Barley Powdery Mildew (BPM) disease; format: in vivo; conditions: Barley Powdery Mildew
[1] = tested on: Pyricularia oryzae Carvara KA301; format: in vivo; conditions: Rice Blast
Rhizoctonia solani AG-1 = experiment: Fungicidal activity against Rice Sheath Blight (RSB) disease; conditions: Rice Sheath Blight
Experimental: To examine fungicidal activity of the compounds of the present invention, each of the compounds listed in Table 3 and 4 was dissolved in 10% acetone to a concentration of 250 ppm, and Tween-20 was added thereto to a concentration of 250 or 500 ppm. 50 ml of the resulting solution was sprayed on leaves of a host plant. The plant was kept at room temperature for 24 hours to let the solvent evaporate, and then, a pathogenic fungus was inoculated thereonto. The plant was held in a humidity chamber for 24 hours, transferred to an plant growth room kept at 20 to 27° C. and a relative humidity of 60 to 80% and kept to induce disease. […] This procedure was repeated twice for each test. 10% Acetone solution containing 250 ppm of Tween-20 was used as a control.
The fungicidal activity of the compound of the present invention is repressed by a control value (C.V.) calculated as; [formula]
Rhizoctonia solani AG-1 was cultured on a PDA medium (potato 200 g, dextrose 20 g, agar 20 g and distilled water 1 ? for 3 days and the agar disc(diameter 0.6 cm) was inoculated and cultured on sterilized wheat bran medium in a 1 L bottle at 26 to 28° C. for 7 days. A mycelial mass was ground using a homogenizer, inoculated uniformly on soil of a pot wherein a Nakdong rice plant having 2 or 3 leaves and an height of 5 cm grew, and kept in humidity polyvinyl chamber for 5 days to induce RSB. L.A. on a leaf sheath was measured to calculate an C.V.

Botrytis cinerae = experiment: Fungicidal activity against Cucumber Gray Mold Rot (CGM) disease; format: in vivo; conditions: Cucumber Gray Mold Rot; concentration 50 ppm

Structure (SMILES)	WLR (Fungicidal Activities, C.V.) (Puccinia recondita; concentration 2 ppm) [%]	WLR (Fungicidal Activities, C.V.) (Puccinia recondita; concentration 10 ppm) [%]	WLR (Fungicidal Activities, C.V.) (Puccinia recondita; concentration 50 ppm) [%]	TLB (Fungicidal Activities, C.V.) (Phytophthora infestans; concentration 50 ppm) [%]	BPM (Fungicidal Activities, C.V.) (Erysiphae graminis; concentration 2 ppm) [%]	BPM (Fungicidal Activities, C.V.) (Erysiphae graminis; concentration 10 ppm) [%]	BPM (Fungicidal Activities, C.V.) (Erysiphae graminis; concentration 50 ppm) [%]	RCV (Fungicidal Activities, C.V.) ([1]; concentration 2 ppm) [%]	RCV (Fungicidal Activities, C.V.) ([1]; concentration 10 ppm) [%]	RCV (Fungicidal Activities, C.V.) ([1]; concentration 50 ppm) [%]	RSB (Fungicidal Activities, C.V.) (Rhizoctonia solani AG-1; concentration 50 ppm) [%]	CGM (Fungicidal Activities, C.V.) (Botrytis cinerae) [%]	TLB (Fungicidal Activities, C.V.) (Phytophthora infestans; concentration 2 ppm) [%]	RSB (Fungicidal Activities, C.V.) (Rhizoctonia solani AG-1; concentration 2 ppm) [%]
COC=C(C(=O)OC)c1ccccc1CON=C(C)c1cccc(OC(F)=C(c2ccc(C)c(C)c2)C(F)(F)F)c1 [Compound 153]	91	100	100	13	83	99	100	0	25	86	55	20	–	–
CCCCc1ccc(C=C(F)Oc2cccc(C(C)=NOCc3ccccc3C(=NOC)C(=O)OC)c2)cc1 [Compound 70]	93	–	97	0	83	–	100	99	–	100	85	50	12	20
CNC(=O)C(=NOC)c1ccccc1CON=Cc1cccc(OC(F)=C(c2cccc(C)c2)C(F)(F)F)c1 [Compound 140]	0	–	100	0	–	–	86	86	–	97	64	0	–	–
CNC(=O)C(=NOC)c1ccccc1CON=Cc1cccc(OC(F)=Cc2ccc(C)c(C)c2)c1 [Compound 32]	3	–	99	0	0	–	100	99	–	100	41	8	–	–
CNC(=O)C(=NOC)c1ccccc1CON=Cc1cccc(OC(F)=C(c2ccc(F)cc2)C(F)(F)F)c1 [Compound 145]	83	–	100	0	33	–	100	83	–	100	64	0	–	–
COC=C(C(=O)OC)c1ccccc1CON=Cc1cccc(OC(F)=Cc2ccc(Cl)cc2)c1 [Compound 14]	96	99	100	12	99	100	100	58	86	100	75	7	–	–
CON=C(C(=O)OC)c1ccccc1CON=C(c1cccc(OC(F)=Cc2ccccc2)c1)C(F)(F)F [Compound 102]	94	96	99	0	97	100	100	71	86	99	50	23	–	–
